In patent US20240358624A1, “APPLICATION TYPE BODY-CORRECTING-FILM FORMING AGENT” (SHISEIDO COMPANY, LTD., priority 2021, published 2024):
Each block holds one compound with its values, some of them ahead of it. Peptide text beside a SMILES is read from it.

Test: Permeability test with stationary Franz diffusion cell and human skin
Assay type: in vitro ADME
Procedure: The intramembrane concentrations of various water-soluble agents in the epidermis and dermis after 24 hours were measured using the following conditions and methods with a stationary Franz diffusion cell and human skin.
• Cell type: Stationary Franz diffusion cell (manufactured by Biocom Systems, Inc.) • Receptor well volume: 3.3 mL • Target skin area: 0.55 cm^2 • Membrane type: Human skin having a thickness of 300 μm (acquired from New York Firefighter's Skin Bank, Science Care, Allosource, or BioIVT) • Number of skin donors: 1 individual • Details of donors: Gender: male or female; age: from 30 to 70 years old; site: thigh or upper torso • Receptor fluid: Phosphate buffered saline (PBS) containing 0.01% w/w NaN3 (preservative)
The concentrations of water-soluble agents were measured in the receptor chamber of the diffusion cell at different time points. At the end of the diffusion test, the skin was sequentially tape-stripped and divided into epidermal and dermal layers. Concentrates of various water-soluble agents in each of the grouped tape strips and epidermal and dermal tissues were extracted using an extraction solvent and analyzed on an Agilent G6120 HPLC system equipped with an LC-MS detector.
The obtained skin was cryopreserved in a freezer at −20° C. until the morning of the test. Before use, the skin was removed from the freezer and completely thawed at room temperature. Only visually intact areas of the skin were used during testing.
The receptor fluid was prepared at the appropriate pH and degassed by filtering the receptor fluid through a ZapCap (registered trademark) CR 0.2 μm membrane while vacuuming.
The diffusion cell was assembled according to (1) to (10) below. […]
Once the cell was assembled and the skin was hydrated for 20 minutes, a tritiated water test was performed to assess the barrier integrity of each skin piece before applying the test sample to the skin. Skin barrier integrity was evaluated according to (a) to (i) below. […]

Structure (SMILES): COc1ccc(C(=O)[O-])c(O)c1.[K+] [potassium 4-methoxysalicylate]
Distribution in the skin when it permeates the skin (from body-correcting-film forming agent, Table 1): tends to remain in the epidermis

Skin permeability (dosage form of the second agent is a water-in-oil emulsion composition): skin permeability is further improved
Structure (SMILES): NC(=O)c1cccnc1 [nicotinic acid amide, reference compound]

Skin permeability (dosage form of the second agent is an oil-in-water emulsion composition): skin permeability is further improved
Structure (SMILES): NCC(=O)NCC(=O)O [glycylglycine] (H-Gly-Gly-OH)
